Several values for one entry are separate records, joined by “and”; a condition that tells them apart may be missing. Equal values may be shown once.
Key:
CYP2B6 mRNA = assay: in vitro; details: human
CYP1A2 mRNA = assay: in vitro; details: human
[1] = Solubility assessment in HBSSg_7.4 and HBSSg_8.5; details: for Measured Concentration / Percent of the Nominal Concentration: replicates 1-3
hrCYP3A4 = hrCYP3A4 (Homo sapiens, UniProt P08684); assay: CYP reaction phenotyping with hrCYP3A4 (% remaining); assay type: in vitro ADME; details: hrCYP3A4 20 pmol CYP/mL, 5 μM TA, PB and TUDCA co-incubated
Chain of hrCYP3A4 (P08684 whole entry): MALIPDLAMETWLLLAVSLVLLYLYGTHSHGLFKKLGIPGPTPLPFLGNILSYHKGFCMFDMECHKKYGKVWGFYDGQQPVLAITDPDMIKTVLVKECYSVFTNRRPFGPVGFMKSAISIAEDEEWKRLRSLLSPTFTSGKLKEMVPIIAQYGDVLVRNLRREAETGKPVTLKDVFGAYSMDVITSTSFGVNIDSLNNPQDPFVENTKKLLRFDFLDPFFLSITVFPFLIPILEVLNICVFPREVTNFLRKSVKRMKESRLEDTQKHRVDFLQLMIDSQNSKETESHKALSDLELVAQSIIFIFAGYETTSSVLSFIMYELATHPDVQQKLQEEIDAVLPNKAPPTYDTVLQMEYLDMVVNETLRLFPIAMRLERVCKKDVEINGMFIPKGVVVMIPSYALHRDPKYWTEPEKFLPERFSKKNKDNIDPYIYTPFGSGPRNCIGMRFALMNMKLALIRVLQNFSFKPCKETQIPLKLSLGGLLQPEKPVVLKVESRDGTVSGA

[2] = Rat drug-drug interaction study TDF + AMX0035: plasma pharmacokinetics; details: for Plasma Concentration of analyte at 0.50 hr / Plasma Concentration of analyte at 1.0 hr / Plasma Concentration of analyte at 2.0 hr / Plasma Concentration of analyte at 4.0 hr / Plasma Concentration of analyte at 8.0 hr / Plasma Concentration of analyte at 24 hr / Plasma Concentration of analyte at […] / AUC0-24 / AUClast / Cmax / Tlast / Tmax: male Sprague Dawley rats; for AUC0-24 / AUClast / Cmax / Tlast / Tmax: oral, plasma
hrCYP1A2 = target: T1, hrCYP1A2 (Homo sapiens, UniProt P05177); assay: CYP reaction phenotyping with hrCYP1A2 (% remaining); assay type: in vitro ADME; details: hrCYP1A2 20 pmol CYP/mL, 5 μM TA, PB and TUDCA co-incubated
T1 sequence (P05177 1-516): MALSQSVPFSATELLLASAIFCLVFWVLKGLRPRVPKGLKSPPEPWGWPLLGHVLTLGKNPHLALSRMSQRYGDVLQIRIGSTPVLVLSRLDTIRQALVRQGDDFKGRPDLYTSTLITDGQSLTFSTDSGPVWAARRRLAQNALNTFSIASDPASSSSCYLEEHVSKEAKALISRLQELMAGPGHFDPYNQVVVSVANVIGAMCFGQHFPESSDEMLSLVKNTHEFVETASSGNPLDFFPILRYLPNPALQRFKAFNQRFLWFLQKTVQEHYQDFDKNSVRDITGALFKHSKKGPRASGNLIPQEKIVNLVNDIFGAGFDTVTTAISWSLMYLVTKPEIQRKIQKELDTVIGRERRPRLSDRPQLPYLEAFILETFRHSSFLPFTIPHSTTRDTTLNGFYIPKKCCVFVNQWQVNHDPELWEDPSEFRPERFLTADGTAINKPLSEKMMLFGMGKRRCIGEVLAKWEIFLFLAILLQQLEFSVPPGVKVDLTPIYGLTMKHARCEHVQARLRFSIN

hrCYP2D6 = hrCYP2D6 (Homo sapiens, UniProt P10635); assay: CYP reaction phenotyping with hrCYP2D6 (% remaining); assay type: in vitro ADME; details: hrCYP2D6 20 pmol CYP/mL, 5 μM TA, PB and TUDCA co-incubated
Chain of hrCYP2D6 (P10635 whole entry): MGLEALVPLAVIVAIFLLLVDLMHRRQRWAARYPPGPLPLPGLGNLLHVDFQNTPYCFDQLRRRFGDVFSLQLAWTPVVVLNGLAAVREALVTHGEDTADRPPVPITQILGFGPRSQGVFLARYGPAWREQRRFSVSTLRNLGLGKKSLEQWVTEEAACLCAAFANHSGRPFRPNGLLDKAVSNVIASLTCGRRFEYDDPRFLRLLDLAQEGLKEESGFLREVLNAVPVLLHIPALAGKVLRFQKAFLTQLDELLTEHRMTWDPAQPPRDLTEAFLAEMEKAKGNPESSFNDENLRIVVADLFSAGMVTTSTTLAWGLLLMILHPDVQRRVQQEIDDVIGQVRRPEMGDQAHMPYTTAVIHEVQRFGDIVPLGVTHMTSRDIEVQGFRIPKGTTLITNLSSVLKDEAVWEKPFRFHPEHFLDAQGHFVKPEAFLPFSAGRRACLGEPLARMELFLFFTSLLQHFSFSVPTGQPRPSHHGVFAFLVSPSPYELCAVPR

[3] = Rat drug-drug interaction study TDF + AMX0035: urine recovery; assay type: in vivo; details: Days 1 and 5
Method: Total urine recovery data for Tenofovir, TDF, and PB was calculated for the 24 hour collection period on Days 1 and 5. […] The reported urine recovery data included amount recovered (ng) and percent recovered (%) for […]. Individual and mean Tenofovir, TDF, and PB urine recovery data were presented with SD, reported to three significant figures, and CV %, reported to one decimal place.

[4] = HBSSg_7.4, target 8005 μM TUDCA, 64447 μM PB
[5] = HBSSg_8.5, target 810 μM TUDCA, 73927 μM PB
[6] = Day 1, TDF only 25 mg/kg oral, individual animals, BLQ = <50 ng/mL
[7] = Day 1, TDF only 25 mg/kg oral, mean of 3, BLQ set to zero
[8] = Day 5, AMX0035 + TDF 840/25 mg/kg oral, individual animals, BLQ = <50 ng/mL
[9] = Day 5, AMX0035 + TDF 840/25 mg/kg oral, mean of 3, BLQ set to zero
[10] = Day 1, TDF only 25 mg/kg, individual animals
[11] = Day 1, TDF only 25 mg/kg, mean, N=3
[12] = Day 5, AMX0035 + TDF 840/25 mg/kg, individual animals
[13] = Day 5, AMX0035 + TDF 840/25 mg/kg, mean, N=3

Molecule O=C(O)Cc1ccccc1 [Phenylacetic acid, phenylacetic acid] has an EC50 at 72 h (CYP2B6 mRNA) of 19.5 µM and an EC50 at 72 h (CYP1A2 mRNA) of 8.18 µM.
For tauroursodeoxycholic acid [TUDCA], the “Soluble up to target concentration” value ([1]; HBSSg_7.4, 37° C. overnight) was ≥ 8005 µM, the “Measured Concentration” value [1, 4] was 6710 µM and 6950 µM and 6770 µM and the “Percent of the Nominal Concentration” value [1, 4] was 83.8% and 86.8% and 84.6%. The “Soluble up to target concentration” value ([1]; HBSSg_8.5, 37° C. overnight) was ≥ 810 µM, the “Measured Concentration” value [1, 5] was 719 μM and 704 μM (2×) and the “Percent of the Nominal Concentration” value [1, 5] was 88.8% and 86.9% (2×). For the same molecule, the “% Remaining of TA” value (hrCYP3A4; 0 min) was 100%, the “% Remaining of TA” value (hrCYP3A4; 5 min) was 97.1% and the “% Remaining of TA” value (hrCYP3A4; 10 min) was 92.1%. For the same molecule, the “% Remaining of TA” value (hrCYP3A4; 20 min) was 91.4%, the “% Remaining of TA” value (hrCYP3A4; 30 min) was 90.9% and the “% Remaining of TA” value (hrCYP3A4; 60 min) was 91.1%. For the same molecule, the “Plasma Concentration of analyte at 0.50 hr” value [2, 6] was 154 ng/mL and 148 ng/mL and 45.4 ng/mL, the “Plasma Concentration of analyte at 1.0 hr” value [2, 6] was 239 ng/mL and 197 ng/mL and 108 ng/mL and the “Plasma Concentration of analyte at 2.0 hr” value [2, 6] was 313 ng/mL and 186 ng/mL and 76.8 ng/mL. The “Plasma Concentration of analyte at 4.0 hr” value [2, 6] was 199 ng/mL and 153 ng/mL and 71.4 ng/mL, the “Plasma Concentration of analyte at 8.0 hr” value [2, 6] was 338 ng/mL and 211 ng/mL and 68.8 ng/mL and the “Plasma Concentration of analyte at 24 hr” value [2, 6] was 267 ng/mL and 287 ng/mL and 113 ng/mL. For the same molecule, the “Plasma Concentration of analyte at […]” value [2, 6] was 201 ng/mL and 121 ng/mL and 69.3 ng/mL, the “Plasma Concentration of analyte at 0.50 hr” value [2, 7] was 116 ng/mL and the “Plasma Concentration of analyte at 1.0 hr” value [2, 7] was 181 ng/mL. The “Plasma Concentration of analyte at 2.0 hr” value [2, 7] was 192 ng/mL, the “Plasma Concentration of analyte at 4.0 hr” value [2, 7] was 141 ng/mL and the “Plasma Concentration of analyte at 8.0 hr” value [2, 7] was 139 ng/mL. For the same molecule, the “Plasma Concentration of analyte at 24 hr” value [2, 7] was 222 ng/mL, the “Plasma Concentration of analyte at […]” value [2, 7] was 130 ng/mL and the “Mean endogenous plasma levels” value ([2]; Day 1, no AMX0035, over 24 hours) was 130 to 222 ng/mL. For the same molecule, the “Increase of plasma concentration vs Day 1 at each time point” value ([2]; Day 5) was 30-50%, the “Peak (Cmax) plasma value” ([2]; Day 5, AMX0035 840 mg/kg PO) was 298 ng/mL and the “Plasma Concentration of analyte at 0.50 hr” value [2, 8] was 96.1 ng/mL and 225 ng/mL and 183 ng/mL. For the same molecule, the “Plasma Concentration of analyte at 1.0 hr” value [2, 8] was 154 ng/mL and 236 ng/mL and 366 ng/mL, the “Plasma Concentration of analyte at 2.0 hr” value [2, 8] was 126 ng/mL and 200 ng/mL and 505 ng/mL and the “Plasma Concentration of analyte at 4.0 hr” value [2, 8] was 123 ng/mL and 176 ng/mL and 255 ng/mL. For the same molecule, the “Plasma Concentration of analyte at 8.0 hr” value [2, 8] was 103 ng/mL and 172 ng/mL and 187 ng/mL, the “Plasma Concentration of analyte at 24 hr” value [2, 8] was 130 ng/mL and 216 ng/mL and 178 ng/mL and the “Plasma Concentration of analyte at […]” value [2, 8] was 84.0 ng/mL and 220 ng/mL and 235 ng/mL. For the same molecule, the “Plasma Concentration of analyte at 0.50 hr” value [2, 9] was 168 ng/mL, the “Plasma Concentration of analyte at 1.0 hr” value [2, 9] was 252 ng/mL and the “Plasma Concentration of analyte at 2.0 hr” value [2, 9] was 277 ng/mL. For the same molecule, the “Plasma Concentration of analyte at 4.0 hr” value [2, 9] was 185 ng/mL, the “Plasma Concentration of analyte at 8.0 hr” value [2, 9] was 154 ng/mL and the “Plasma Concentration of analyte at 24 hr” value [2, 9] was 175 ng/mL. The “Plasma Concentration of analyte at […]” value [2, 9] was 180 ng/mL, the AUC0-24 [2, 10] was 2040 ng·h/mL and 4870 ng·h/mL and 5380 ng·h/mL and the AUClast [2, 10] was 2040 ng·h/mL and 4870 ng·h/mL and 5380 ng·h/mL. The Cmax [2, 10] was 113 ng/mL and 313 ng/mL and 287 ng/mL, the Tlast [2, 10] was 24 h and the Tmax [2, 10] was 24 h and 2.0 h. It also gave an AUC0-24 [2, 11] of 409 ng·h/mL, an AUClast [2, 11] of 4090 ng·h/mL and a Cmax [2, 11] of 238 ng/mL. The Tlast [2, 11] was 24 h, the Tmax [2, 11] was 17 h and the AUC0-24 [2, 12] was 2800 ng·h/mL and 4590 ng·h/mL and 5220 ng·h/mL. The AUClast [2, 12] was 2800 ng·h/mL and 4590 ng·h/mL and 5220 ng·h/mL, the Cmax [2, 12] was 154 ng/mL and 236 ng/mL and 505 ng/mL and the Tlast [2, 12] was 24 h. For the same molecule, the Tmax [2, 12] was 1.0 h and 2.0 h, the AUC0-24 [2, 13] was 4200 ng·h/mL and the AUClast [2, 13] was 4200 ng·h/mL. For the same molecule, the Cmax [2, 13] was 298 ng/mL, the Tlast [2, 13] was 24 h and the Tmax [2, 13] was 1.3 h. The “% Remaining of TA” value (hrCYP1A2; 0 min) was 100%, the “% Remaining of TA” value (hrCYP1A2; 5 min) was 98.0% and the “% Remaining of TA” value (hrCYP1A2; 10 min) was 101%. The “% Remaining of TA” value (hrCYP1A2; 20 min) was 99.9%, the “% Remaining of TA” value (hrCYP1A2; 30 min) was 103% and the “% Remaining of TA” value (hrCYP1A2; 60 min) was 90.5%. The “% Remaining of TA” value (hrCYP2D6; 0 min) was 100%, the “% Remaining of TA” value (hrCYP2D6; 5 min) was 98.4% and the “% Remaining of TA” value (hrCYP2D6; 10 min) was 97.8%. For the same molecule, the “% Remaining of TA” value (hrCYP2D6; 20 min) was 97.0%, the “% Remaining of TA” value (hrCYP2D6; 30 min) was 99.2% and the “% Remaining of TA” value (hrCYP2D6; 60 min) was 98.6%. For the same molecule, the Detection in urine [3] was “not detected in any urine samples”.

From US20240139211A1, “METHODS AND COMPOSITIONS FOR TREATING AMYOTROPHIC LATERAL SCLEROSIS” (Amylyx Pharmaceuticals, Inc., priority 2022, published 2024)
